In brackets after ≈: the same amount, converted by molar mass.

Data set [1] is described as follows: Solubility in fasted-state simulated colonic fluid (FaSSCoF) at pH 6.5. Conditions: 25 °C, pH 6.5, fassgf or other biorelevant, thermodynamic from solid. The class given is physicochemical. The essentials: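 Compounds were suspended at up to 2-10 mg/mL in pH 6.5 Tris/maleate FaSSCoF containing a five-bile-acid mixture, phosphatidylcholine, palmitic acid and BSA. After 24 h equilibration at 25° C the suspension was filtered and the filtrate quantified by HPLC peak area against a standard.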

The next data set deals with GSK 3α (Homo sapiens (Human), UniProt P49840). Description: GSK 3α enzyme inhibition (Method 2), Z-LYTE FRET. The class given is biochemical. Conditions: read-out: IC50 Values for Enzyme Inhibition GSK3α. On the procedure: The enzyme inhibitory activities of compounds disclosed herein are determined by FRET using synthetic peptides labelled with both donor and acceptor fluorophores (Z-LYTE, Invitrogen Ltd., Paisley, UK).
Chain of GSK 3α (P49840 whole entry): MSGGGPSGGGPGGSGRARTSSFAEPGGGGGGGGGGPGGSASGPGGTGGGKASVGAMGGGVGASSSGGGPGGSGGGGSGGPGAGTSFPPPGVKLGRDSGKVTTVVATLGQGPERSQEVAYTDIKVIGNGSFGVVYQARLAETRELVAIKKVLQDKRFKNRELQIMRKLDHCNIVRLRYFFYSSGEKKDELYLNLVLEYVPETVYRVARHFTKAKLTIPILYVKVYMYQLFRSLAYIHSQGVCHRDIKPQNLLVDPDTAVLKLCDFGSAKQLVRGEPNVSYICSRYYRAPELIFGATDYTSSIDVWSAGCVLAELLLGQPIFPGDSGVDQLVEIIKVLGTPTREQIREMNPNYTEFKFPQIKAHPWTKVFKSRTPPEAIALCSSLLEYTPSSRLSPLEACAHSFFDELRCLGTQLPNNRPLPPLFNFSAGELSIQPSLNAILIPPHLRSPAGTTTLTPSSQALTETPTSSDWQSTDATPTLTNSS
The following two assay variants can be used for determination of GSK 3α inhibition.
The inhibitory activities of compounds of the invention against the GSK 3α enzyme isoform (Invitrogen), are evaluated by determining the level of activation/phosphorylation of the target peptide. The GSK3-α protein (500 ng/mL, 2.5 μL) is mixed with the test compound (2.5 μL at either 4 μg/mL, 0.4 μg/mL, 0.04 μg/mL, or 0.004 μg/mL) for 2 hr at RT. The FRET peptide (8 μM, 2.5 μL), which is a phosphorylation target for GSK3α, and ATP (40 μM, 2.5 μL) are then added to the enzyme/compound mixture and the resulting mixture incubated for 1 hr. Development reagent (protease, 5 μL) is added for 1 hr prior to detection in a fluorescence microplate reader (Varioskan® Flash, ThermoFisher Scientific).
In all cases, the site-specific protease cleaves non-phosphorylated peptide only and eliminates the FRET signal. Phosphorylation levels of each reaction are calculated using the ratio of coumarin emission (donor) over fluorescein emission (acceptor), for which high ratios indicate high phosphorylation and low ratios indicate low phosphorylation levels.
This method follows the same steps as Method 1 above, but utilises a shorter period of mixing of the test compound (105 minutes instead of 2 hours) with the GSK3-α protein. In addition, the concentrations of test compound employed are either 10 μg/mL, 1 μg/mL, 0.1 μg/mL, or 0.01 μg/mL

Setting [2] is: pH 6.5 FaSSCoF Solubility (mg/mL) Run 1.
Where [3] appears, read: pH 6.5 FaSSCoF Solubility (mg/mL) Run 2.

By thermodynamic solubility is commonly meant the concentration in solution at equilibrium with solid. As a reminder, the IC50 is the point on the concentration scale where inhibition reaches its midpoint. In the case of `COc1cc(Nc2cc(Oc3ccc(NC(=O)Nc4cc(C(C)(C)C)cc(NS(C)(=O)=O)c4OC)c4ccccc34)ccn2)cc(OC)c1C(=O)NCCN1CCOCC1` [17(ae), 4-[[4-[[4-[[5-tert-butyl-3-(methanesulfonamido)-2-methoxy-phenyl]carbamoylamino]-1-naphthyl]oxy]-2-pyridyl]amino]-2,6-dimethoxy-N-(2-morpholinoethyl)benzamide], the solubility (thermodynamic) at 24 h in data set [1] (setting [2]) was 0.011 mg/mL (≈ 13.1 µM); in data set [1] (setting [3]), 0.012 mg/mL (≈ 14.3 µM). For the same compound, the IC50 at GSK 3α came to 3 µM.

On to `COc1cc(Nc2cc(Oc3ccc(NC(=O)Nc4cc(C(C)(C)C)cc(NS(C)(=O)=O)c4OC)c4ccccc34)ccn2)ccc1C(=O)NCCCN1CCOCC1` [17(b), 4-[[4-[[4-[[5-tert-butyl-3-(methanesulfonamido)-2-methoxy-phenyl]carbamoylamino]-1-naphthyl]oxy]-2-pyridyl]amino]-2-methoxy-N-(3-morpholinopropyl)benzamide], for which the solubility (thermodynamic) at 24 h in data set [1] (setting [2]) and in data set [1] (setting [3]) was 0.015 mg/mL (≈ 18.2 µM) each time. The IC50 at GSK 3α amounted to 4.49 µM.

Take `COc1cc(Nc2cc(Oc3ccc(NC(=O)Nc4cc(C(C)(C)C)cc(NS(C)(=O)=O)c4OC)c4ccccc34)ccn2)ccc1C(=O)NCCOCCOCCC(=O)O` [17(x), 3-[2-[2-[[4-[[4-[[4-[[5-tert-butyl-3-(methanesulfonamido)-2-methoxyphenyl]carbamoyl-amino]-1-naphthyl]oxy]-2-pyridyl]amino]-2-methoxy-benzoyl]amino]ethoxy]ethoxy]propanoic acid]: the values for the solubility (thermodynamic) at 24 h in data set [1] (setting [2]) and in data set [1] (setting [3]) were 0.015 mg/mL (≈ 17.5 µM) and 0.009 mg/mL (≈ 10.5 µM), respectively. The IC50 on GSK 3α came to 0.412 µM.

With `COc1cc(Nc2cc(Oc3ccc(NC(=O)Nc4cc(C(C)(C)C)cc(NS(C)(=O)=O)c4OC)c4ccccc34)ccn2)ccc1C(=O)N[C@@H](C)CN1CCOCC1` [17(v), 4-[[4-[[4-[[5-tert-butyl-3-(methanesulfonamido)-2-methoxy-phenyl]carbamoylamino]-1-naphthyl]oxy]-2-pyridyl]amino]-2-methoxy-N-[(1S)-1-methyl-2-morpholino-ethyl]benzamide], the solubility (thermodynamic) at 24 h in data set [1] (setting [2]) and in data set [1] (setting [3]) was 0.008 mg/mL (≈ 9.69 µM) each time. Also, the IC50 on GSK 3α was above 12.1 µM.

With `COc1cc(Nc2cc(Oc3ccc(NC(=O)Nc4cc(C(C)(C)C)cc(C(N)=O)c4OC)c4ccccc34)ccn2)ccc1C(=O)O` [Example 3, 4-((4-((4-(3-(5-(tert-Butyl)-3-carbamoyl-2-methoxyphenyl)ureido)naphthalen-1-yl)oxy)pyridin-2-yl)amino)-2-methoxybenzoic acid], the thermodynamic solubility at 24 h in data set [1] (setting [2]) and in data set [1] (setting [3]) was 0.006 mg/mL (≈ 9.23 µM) in each case. Also, the IC50 on GSK 3α is 0.139 µM.

(Values after patent publication US9751837B2, “Kinase inhibitors” (RESPIVERT LIMITED, priority 2014, dated 2017).)
